Measurements from patent US5277897A, “In vivo enhancement of cellular accumulation of lipophilic cationic organometallic compounds by reduction of intramembrane potential” (Brigham and Women's Hospital, priority 1992, dated 1994).

Experiments:
[1] = system: cultured chick heart cells; assay: Effect of MSA on Tc-MIBI net accumulation (FIG. 3); type: cell-based; conditions: TPB 10^-5 M, n=3
Procedure: FIG. 3. Effect of MSA on Tc-MIBI net accumulation. Preparations were incubated for the times indicated in Tc-MIBI loading buffer containing 5.4 mM KCl (.quadrature., .smallcircle.) or 5.4 mM K-MSA ( , ·; prepared by equimolar substitution of K-MSA KCl) in the absence (.quadrature., ) or presence (.smallcircle., ·) of TPB (10^-5 M). Each point represents the mean ±SEM of 3 determinations.
Control buffer was a modified Earle's balanced salt solution (MEBSS) with the following composition (mN) Na^30, 145; K^+, 5.4; Ca^2, 1.2; Mg^2+, 0.8; Cl, 152; H2 PO4, 0.8; SO4^2-, 0.8; dextrose, 5.6; HEPES, 4.0; and bovine calf serum, 1% (v/v); […]; 37° C. K-methanesulfonate was made by titration of methanesulfonic acid with KOH (Piwnica-Worms, D., et al., J. Gen. Physiol. 81:731-748 (1983)) and replaced […] in some solutions by equimolar substitution where indicated. Natetraphenylborate, CCCP, bumetanide and valinomycin were dissolved into DMSO prior to addition to buffer. DMSO alone has no significant affect on contractile activity, action potential configuration (Lieberman, M., et al., Dev. Biol. 31:380-403 (1973)) or Tc-MIBI uptake kinetics (Piwnica-Worms, D., et al., Circ. (in press)).
Monolayers of spontaneously contractile chick ventricular myocardial cells were obtained from disaggregated 10-day old chick embryo hearts by a slight modification of previously published methods (Horres, C. R., et al., In Pinson, A. (ed.), The Heart Cell in Culture, Boca Raton, CRC Press, pp. 77-108 (1987)). […] Cells were centrifuged at 400 g for 10 minutes, resuspended and combined in culture medium, counted with a hemocytometer and diluted to yield a suspension of 5×10^5 cells/ml. […]
(§1) Radioactive uptake methods have been described in detail (Piwnica-Worms, D., et al, Circ. (in press). Briefly, coverslips with confluent cells were removed from culture media and pre-equilibrated for 40-60 seconds in MEBSS buffer. Uptake and retention experiments were initiated by immersion of coverslips in 60 mm glass Pyrex dishes containing loading solution consisting of buffer with 0.1-0.6 nM [^99m Tc-MIBI] (0.01-0.4 Ci/nmole; 25-100 uCi/ml). Preparations were removed at various times and rinsed three times in 25 ml volumes of ice-cold (2° C.) isotope-free buffer for 8 seconds each to clear extracellular spaces. Preparations and aliquots of the loading buffer and stock solutions were counted in a well-type sodium iodide gamma counter after which cell protein on each coverslip was extracted in 1% sodium dodecylsulfate with 10 mM sodium borate and assayed by the method of Lowry (Lowry, O. H., et al., J. Biol. Chem. 193:265-275 (1951)). […]

[2] = system: cultured chick heart cells; assay: Effect of TPB on the Ko-dependence of Tc-MIBI influx rates; plasma membrane potential by Goldman flux equation (FIG. 6); type: cell-based
Procedure: FIG. 6. Effect of TPB on the Ko -dependence of Tc-MIBI influx rates. A) Preparations were preincubated in MEBSS containing the indicated Ko (K-MSA substitution for NaCl) for 1 minute in the absence (.quadrature.) and for 5 minutes in the presence ( ) of valinomycin (1 ug/ml) prior to determination of 2-min Tc-MIBI uptakes in buffer of the same composition. B) Same conditions as A with a 5-minute pre-incubation period in buffers that also contained TPB (10^-5 M) in the absence (o) or presence (·) of valinomycin. C) Resting membrane potential (Em) as a function of Ko. Em was calculated from the Tc-MIBI influx data shown in A in the presence of valinomycin using the Goldman flux equation (Restrepo, D., et al., J. Gen. Physiol. 92:489-507 (1988)): J/Jo =-x/(1-e^x) where x=Em F/RT and J/Jo is the ratio of Tc-MIBI influx rates at Em and zero membrane potential (Ko =130 mM), respectively. RT/F equals 26 mV at 37° C. The solid lines in A and B have no theoretical significance. The solid line in C represents a linear regression of the data: -Em =-67 log Ko +147mV (r=-0.99). […] Each point is the mean ±SEM of 3 determinations.
Monolayers of spontaneously contractile chick ventricular myocardial cells were obtained from disaggregated 10-day old chick embryo hearts by a slight modification of previously published methods (Horres, C. R., et al., In Pinson, A. (ed.), The Heart Cell in Culture, Boca Raton, CRC Press, pp. 77-108 (1987)). Hearts were trimmed of connective tissue and atria, finely minced and serially exposed to 0.024% (w/v) trypsin in Ca^2+ - and Mg^2+ - free Earle's salt solution for 7 minutes at 37° C. Gentle trituration and agitation on an orbital shaker bath aided disaggregation. Cells released from the first exposure were discarded and cells aspirated from the next four exposures were then added to an equal volume of trypsin deactivating solution consisting of ice-cold culture medium. Cells were centrifuged at 400 g for 10 minutes, resuspended and combined in culture medium, counted with a hemocytometer and diluted to yield a suspension of 5×10^5 cells/ml. 12 ml of suspension were incubated in 100 mm plastic culture dishes containing 7 coverslips (25 mm diameter) placed on the bottom of each dish to serve as substrate for cell growth. Cells were maintained in a humidified atmosphere of 5% CO2 /95% air for 3-4 days yielding a confluent layer of spontaneously contractile myocytes on each coverslip.
as §1, with “(1951)). Tc-MIBI binding to glass coverslips without cells was used as an estimate of non-specific adhesion to the substrate ([…] obtained with cellular preparations); this value was subtracted from total uptake determinations to derive the cell-associated counts. Use of generator equilibrium equations (Lamson, M. L., et al., i J. Nucl. Med. 16:639-641 (1975)) allowed calculation of absolute moles of Tc-MIBI in solutions and preparations. Results were therefore expressed as fmol cellular Tc-MIBI/mg protein per nM extracellular Tc-MIBI concentration.” for “(1951)).”

[C-]#[N+]CC(C)(C)OC.[C-]#[N+]CC(C)(C)OC.[C-]#[N+]CC(C)(C)OC.[C-]#[N+]CC(C)(C)OC.[C-]#[N+]CC(C)(C)OC.[C-]#[N+]CC(C)(C)OC.[Tc] [Tc-MIBI, hexakis(methoxyisobutylisonitrile)technetium(I)]
Tc-MIBI uptake ([1]; 130 mM K-MSA buffer, P=0.01): 79.3±1.1 fmol Tc-MIBI/mg protein per nM | Tc-MIBI uptake ([1]; 130 mM KCl buffer + bumetanide 10^-5 M): 63.7±3.2 fmol Tc-MIBI/mg protein per nM | valinomycin sensitivity of Tc-MIBI influx ([2]; absence of TPB): only modestly valinomycin-sensitive | valinomycin sensitivity of Tc-MIBI influx ([2]; presence of TPB 10^-5 M): highly valinomycin-sensitive | Nernstian behavior of Tc-MIBI ([2]; presence of valinomycin): close to ideal Nernstian behavior | correlation coefficient r, Em vs log Ko from Tc-MIBI influx ([2]; valinomycin 1 ug/ml, no TPB): -0.99 | slope of membrane potential vs log Ko from Tc-MIBI influx ([2]; valinomycin 1 ug/ml, no TPB, Goldman flux equation): -67 mV/decade | regression -Em = -67 log Ko + 147 mV: intercept ([2]; valinomycin, FIG. 6C): 147 mV | regression -Em = -67 log Ko + 147 mV: slope ([2]; valinomycin, FIG. 6C): -67
